Source: patent US7700786B2, “Pyrazole derivative, intermediate therefor, processes for producing these, and herbicide containing these as active ingredient” (Sagami Chemical Research Center, priority 2001, dated 2010)
Each block holds one compound with its values, some of them ahead of it.

Legend:
Echinochloa oryzicola = assay: Herbicidal efficacy test by pre-emergence treatment under submergence condition; assay type: in vivo; settings: 15th day after treatment, ratings of 1 to 5
Description: (§2) A 1/10,000-are pot was filled with paddy field soil, and, after plowing, seeds of Echinochloa oryzicola, Cyperus difformis, Monochoria vaginalis, Scirpus juncoides, Eleocharis acicularis and other annual broadleaf weeds such as Lindernia procumbens, Rotala indica and Elatine triandra were sown. Rice (oryza sativa) seedlings (cultiver “Koshihikari”) at a 2.5-leaf stage were transplanted and kept under a submergence condition. After one day, the wettable powder or emulsifiable concentrate of the compound of the present invention, prepared according to Preparation Example, was diluted and dropped on a water surface at a predetermined dose.

Cyperus difformis = assay: as above; assay type: in vivo; settings: 15th day after treatment, ratings of 1 to 5; further: key: 1 shows no influence; 5 shows complete die
Description: as §2

[1] = tested on: annual broadleaf weeds such as Lindernia procumbens, Rotala indica and Elatine triandra; assay: as above; assay type: in vivo; settings: 15th day after treatment, ratings of 1 to 5
Description: as §2

Monochoria vaginalis = assay: as above; assay type: in vivo; settings: 15th day after treatment, ratings of 1 to 5; further: key: 1 shows no influence; 5 shows complete die
Description: as §2

Scirpus juncoides = assay: as above; assay type: in vivo; settings: 15th day after treatment, ratings of 1 to 5
Description: as §2

Eleocharis acicularis = assay: as above; assay type: in vivo; settings: 15th day after treatment, ratings of 1 to 5; further: key: 1 shows no influence; 5 shows complete die
Description: as §2

Amaranthus viridis = assay: Herbicidal efficacy test by foliar treatment after germination under upland field condition; assay type: in vivo; settings: dose 1 kg/ha, rated 1 to 5 on the 14th day after treatment; further: key: 1 shows no influence; 5 shows complete die
Description: (§1) A vat having an area of 5×10 cm^2 and a depth of 5 cm was filled with upland field soil, and seeds of Chenopodium album, Echinochloa crus-galli, Amaranthus viridis and Abutilon theophrasti were sown thereon and covered with soil by a depth of 0.5 cm. Water was sprayed as required to grow them for 14 days.

Chenopodium album = assay: as above; assay type: in vivo; settings: dose 1 kg/ha, rated 1 to 5 on the 14th day after treatment; further: key: 1 shows no influence; 5 shows complete die
Description: as §1

Echinochloa crus-galli = assay: as above; assay type: in vivo; settings: dose 1 kg/ha, rated 1 to 5 on the 14th day after treatment
Description: as §1

Abutilon theophrasti = assay: as above; assay type: in vivo; settings: Dc: Digitaria ciliaris (table footnote; method names Abutilon theophrasti), dose 1 kg/ha, rated 1 to 5 on the 14th day after treatment

melting point: 52 to 54 °C
SMILES: CCNC(=O)n1nc(Oc2ncc(C(F)(F)F)cc2Cl)cc1C(F)(F)F [Compound 4-93, N-ethyl-3-(3-chloro-5-trifluoromethylpyridin-2-yloxy)-5-trifluoromethylpyrazole-1-carboxamide]

melting point: 102 to 104 °C
SMILES: Cc1cc(Oc2ncc(C(F)(F)F)cc2Cl)nn1C(=O)N(C)C [Compound 4-10, N,N-Dimethyl-3-(3-chloro-5-trifluoromethylpyridin-2-yloxy)-5-methylpyrazole-1-carboxamide]

melting point: 61 to 63 °C
SMILES: CNC(=O)n1nc(Oc2ncc(C(F)(F)F)cc2Cl)cc1C(F)(F)F [Compound 4-91, N-methyl-3-(3-chloro-5-trifluoromethylpyridin-2-yloxy)-5-trifluoromethylpyrazole-1-carboxamide]

melting point: 78 to 80 °C
SMILES: Cc1c(Oc2ncc(C(F)(F)F)cc2Cl)nn(C(=O)NC(C)C)c1C [Compound 4-82, N-isopropyl-3-(3-chloro-5-trifluoromethylpyridin-2-yloxy)-4,5-dimethylpyrazole-1-carboxamide]

melting point: 101 to 102 °C
SMILES: CCNC(=O)n1nc(Oc2ncc(C(F)(F)F)cc2Cl)c(CC)c1C [Compound 4-85, N-ethyl-3-(3-chloro-5-trifluoromethylpyridin-2-yloxy)-4-ethyl-5-methylpyrazole-1-carboxamide]

Further lines, the compound ahead of its results:

SMILES: CNC(=S)n1nc(Oc2c(Cl)cc(C(F)(F)F)cc2Cl)cc1C [Compound 3-15]
Herbicidal efficacy Eo (Echinochloa oryzicola; dose 0.5 kg/ha): 5 | Herbicidal efficacy Eo (Echinochloa oryzicola; dose 1 kg/ha): 5 | Herbicidal efficacy Cd (Cyperus difformis; dose 0.5 kg/ha): 5 | Herbicidal efficacy Cd (Cyperus difformis; dose 1 kg/ha): 5 | Herbicidal efficacy Blw ([1]; dose 0.5 kg/ha): 5 | Herbicidal efficacy Blw ([1]; dose 1 kg/ha): 5 | Herbicidal efficacy Mv (Monochoria vaginalis; dose 0.5 kg/ha): 5 | Herbicidal efficacy Mv (Monochoria vaginalis; dose 1 kg/ha): 5 | Herbicidal efficacy Sj (Scirpus juncoides; dose 0.5 kg/ha): 5 | Herbicidal efficacy Sj (Scirpus juncoides; dose 1 kg/ha): 5 | Herbicidal efficacy Ea (Eleocharis acicularis; dose 0.5 kg/ha): 5 | Herbicidal efficacy Ea (Eleocharis acicularis; dose 1 kg/ha): 5 | Herbicidal activity Av (Amaranthus viridis): 5 | Herbicidal activity Ca (Chenopodium album): 5 | Herbicidal activity Ec (Echinochloa crus-galli): 5 | Herbicidal activity Dc (Abutilon theophrasti): 5

SMILES: Cc1cc(Oc2c(Cl)cc(C(F)(F)F)cc2Cl)nn1C(=O)NCCCl [Compound 3-143]
Herbicidal efficacy Eo (Echinochloa oryzicola; dose 0.5 kg/ha): 5 | Herbicidal efficacy Eo (Echinochloa oryzicola; dose 1 kg/ha): 5 | Herbicidal efficacy Cd (Cyperus difformis; dose 0.5 kg/ha): 5 | Herbicidal efficacy Cd (Cyperus difformis; dose 1 kg/ha): 5 | Herbicidal efficacy Blw ([1]; dose 0.5 kg/ha): 5 | Herbicidal efficacy Blw ([1]; dose 1 kg/ha): 5 | Herbicidal efficacy Mv (Monochoria vaginalis; dose 0.5 kg/ha): 5 | Herbicidal efficacy Mv (Monochoria vaginalis; dose 1 kg/ha): 5 | Herbicidal efficacy Sj (Scirpus juncoides; dose 0.5 kg/ha): 4 | Herbicidal efficacy Sj (Scirpus juncoides; dose 1 kg/ha): 5 | Herbicidal efficacy Ea (Eleocharis acicularis; dose 0.5 kg/ha): 5 | Herbicidal efficacy Ea (Eleocharis acicularis; dose 1 kg/ha): 5

SMILES: CCCNC(=O)n1nc(Oc2ccc(C(F)(F)F)cc2[N+](=O)[O-])cc1C [Compound 3-82]
Herbicidal activity Av (Amaranthus viridis): 5 | Herbicidal activity Ca (Chenopodium album): 5 | Herbicidal activity Ec (Echinochloa crus-galli): 3.8 | Herbicidal activity Dc (Abutilon theophrasti): 5

SMILES: CCNC(=O)n1nc(Oc2ncc(C(F)(F)F)cc2Cl)cc1C [Compound 4-16, N-ethyl-3-(3-chloro-5-trifluoromethylpyridin-2-yloxy)-5-methylpyrazole-1-carboxamide]
Herbicidal efficacy Eo (Echinochloa oryzicola; dose 0.5 kg/ha): 5 | Herbicidal efficacy Eo (Echinochloa oryzicola; dose 1 kg/ha): 5 | Herbicidal efficacy Cd (Cyperus difformis; dose 0.5 kg/ha): 5 | Herbicidal efficacy Cd (Cyperus difformis; dose 1 kg/ha): 5 | Herbicidal efficacy Blw ([1]; dose 0.5 kg/ha): 5 | Herbicidal efficacy Blw ([1]; dose 1 kg/ha): 5 | Herbicidal efficacy Mv (Monochoria vaginalis; dose 0.5 kg/ha): 5 | Herbicidal efficacy Mv (Monochoria vaginalis; dose 1 kg/ha): 5 | Herbicidal efficacy Sj (Scirpus juncoides; dose 0.5 kg/ha): 4.8 | Herbicidal efficacy Sj (Scirpus juncoides; dose 1 kg/ha): 5 | Herbicidal efficacy Ea (Eleocharis acicularis; dose 0.5 kg/ha): 5 | Herbicidal efficacy Ea (Eleocharis acicularis; dose 1 kg/ha): 5

SMILES: CCCNC(=O)n1nc(Oc2ncc(C(F)(F)F)cc2Cl)cc1C [Compound 4-23, N-propyl-3-(3-chloro-5-trifluoromethylpyridin-2-yloxy)-5-methylpyrazole-1-carboxamide]
Herbicidal efficacy Eo (Echinochloa oryzicola; dose 0.5 kg/ha): 5 | Herbicidal efficacy Eo (Echinochloa oryzicola; dose 1 kg/ha): 5 | Herbicidal efficacy Cd (Cyperus difformis; dose 0.5 kg/ha): 5 | Herbicidal efficacy Cd (Cyperus difformis; dose 1 kg/ha): 5 | Herbicidal efficacy Blw ([1]; dose 0.5 kg/ha): 4.8 | Herbicidal efficacy Blw ([1]; dose 1 kg/ha): 5 | Herbicidal efficacy Mv (Monochoria vaginalis; dose 0.5 kg/ha): 5 | Herbicidal efficacy Mv (Monochoria vaginalis; dose 1 kg/ha): 5 | Herbicidal efficacy Sj (Scirpus juncoides; dose 0.5 kg/ha): 4.9 | Herbicidal efficacy Sj (Scirpus juncoides; dose 1 kg/ha): 5 | Herbicidal efficacy Ea (Eleocharis acicularis; dose 0.5 kg/ha): 5 | Herbicidal efficacy Ea (Eleocharis acicularis; dose 1 kg/ha): 5

SMILES: CNC(=O)n1nc(Oc2ncc(C(F)(F)F)cc2Cl)cc1C [Compound 4-6, N-methyl-3-(3-chloro-5-trifluoromethylpyridin-2-yloxy)-5-methylpyrazole-1-carboxamide]
Herbicidal efficacy Eo (Echinochloa oryzicola; dose 0.5 kg/ha): 4.8 | Herbicidal efficacy Eo (Echinochloa oryzicola; dose 1 kg/ha): 5 | Herbicidal efficacy Cd (Cyperus difformis; dose 0.5 kg/ha): 5 | Herbicidal efficacy Cd (Cyperus difformis; dose 1 kg/ha): 5 | Herbicidal efficacy Blw ([1]; dose 0.5 kg/ha): 5 | Herbicidal efficacy Blw ([1]; dose 1 kg/ha): 5 | Herbicidal efficacy Mv (Monochoria vaginalis; dose 0.5 kg/ha): 5 | Herbicidal efficacy Mv (Monochoria vaginalis; dose 1 kg/ha): 5 | Herbicidal efficacy Sj (Scirpus juncoides; dose 0.5 kg/ha): 4.6 | Herbicidal efficacy Sj (Scirpus juncoides; dose 1 kg/ha): 5 | Herbicidal efficacy Ea (Eleocharis acicularis; dose 0.5 kg/ha): 5 | Herbicidal efficacy Ea (Eleocharis acicularis; dose 1 kg/ha): 5

SMILES: CCC(C)NC(=O)n1nc(Oc2ncc(C(F)(F)F)cc2Cl)cc1C (centres unmarked) [Compound 4-30, N-s-butyl-3-(3-chloro-5-trifluoromethylpyridin-2-yloxy)-5-methylpyrazole-1-carboxamide]
Herbicidal activity Av (Amaranthus viridis): 5 | Herbicidal activity Ca (Chenopodium album): 5 | Herbicidal activity Ec (Echinochloa crus-galli): 5 | Herbicidal activity Dc (Abutilon theophrasti): 5

SMILES: CCNC(=S)n1nc(Oc2ncc(C(F)(F)F)cc2Cl)cc1C [Compound 4-17, N-ethyl-3-(3-chloro-5-trifluoromethylpyridin-2-yloxy)-5-methylpyrazole-1-carbothioamide]
Herbicidal efficacy Eo (Echinochloa oryzicola; dose 0.5 kg/ha): 5 | Herbicidal efficacy Eo (Echinochloa oryzicola; dose 1 kg/ha): 5 | Herbicidal efficacy Cd (Cyperus difformis; dose 0.5 kg/ha): 5 | Herbicidal efficacy Cd (Cyperus difformis; dose 1 kg/ha): 5 | Herbicidal efficacy Blw ([1]; dose 0.5 kg/ha): 4.8 | Herbicidal efficacy Blw ([1]; dose 1 kg/ha): 5 | Herbicidal efficacy Mv (Monochoria vaginalis; dose 0.5 kg/ha): 5 | Herbicidal efficacy Mv (Monochoria vaginalis; dose 1 kg/ha): 5 | Herbicidal efficacy Sj (Scirpus juncoides; dose 0.5 kg/ha): 4.5 | Herbicidal efficacy Sj (Scirpus juncoides; dose 1 kg/ha): 4.8 | Herbicidal efficacy Ea (Eleocharis acicularis; dose 0.5 kg/ha): 5 | Herbicidal efficacy Ea (Eleocharis acicularis; dose 1 kg/ha): 5

SMILES: Cc1cc(Oc2c(Cl)cc(C(F)(F)F)cc2Cl)n[nH]1 [Compound 1-17, 3-(2,6-dichloro-4-trifluoromethylphenyloxy)-5-methylpyrazole]
melting point: 153 to 155 °C

SMILES: CCNC(=O)n1nc(Oc2c(F)cc(C(F)(F)F)cc2F)cc1C [Example 124, N-ethyl-3-(2,6-difluoro-4-trifluoromethylphenyloxy)-5-methylpyrazole-1-carboxamide]
melting point: 102 to 104 °C

SMILES: Cc1c(Cl)c(Oc2c(Cl)cc(C(F)(F)F)cc2Cl)nn1C(=O)NC(C)C [Example 249, N-isopropyl-4-chloro-3-(2,6-dichloro-4-trifluoromethylphenyloxy)-5-methylpyrazole-1-carboxamide]
melting point: 109 to 111 °C

SMILES: CCNC(=O)n1nc(Oc2ccc(F)cc2[N+](=O)[O-])cc1C [Example 85, N-ethyl-3-(4-fluoro-2-nitrophenyloxy)-5-methylpyrazole-1-carboxamide]
melting point: 81 to 84 °C

SMILES: CCNC(=O)n1nc(Oc2c(Cl)cc(C(F)(F)F)cc2[N+](=O)[O-])cc1C [Example 126, N-ethyl-3-(2-chloro-6-nitro-4-trifluoromethylphenyloxy)-5-methylpyrazole-1-carboxamide]
melting point: 98 to 99 °C

SMILES: CCNC(=O)n1nc(Oc2ccc(C(F)(F)F)cc2[N+](=O)[O-])cc1C [Compound 3-67]
Herbicidal activity Av (Amaranthus viridis): 5 | Herbicidal activity Ca (Chenopodium album): 5 | Herbicidal activity Ec (Echinochloa crus-galli): 4.9 | Herbicidal activity Dc (Abutilon theophrasti): 5

SMILES: CNC(=O)n1nc(Oc2ccc(C(F)(F)F)cc2N)cc1C [Example 242, N-methyl-3-(2-amino-4-trifluoromethylphenyloxy)-5-methylpyrazole-1-carboxamide]
melting point: 93 to 94 °C

SMILES: CCCNC(=O)n1nc(Oc2c(Cl)cc(C(F)(F)F)cc2Cl)cc1C(Cl)(Cl)Cl [Example 250, N-propyl-3-(2,6-dichloro-4-trifluoromethylphenyloxy)-5-trichloromethylpyrazole-1-carboxamide]
melting point: 89 to 91 °C

SMILES: CCOc1cc(Oc2cc(C)[nH]n2)ccc1[N+](=O)[O-] [Compound 1-6, 3-(3-ethoxy-4-nitrophenyloxy)-5-methylpyrazole]
melting point: 123 to 124 °C

SMILES: Cc1cc(Oc2ccccc2C(F)(F)F)nn1C(=O)Nc1ccccc1
melting point: 87 to 89 °C

SMILES: Cc1[nH]nc(Oc2c(Cl)cc(C(F)(F)F)cc2Cl)c1Cl [Compound 1-18, 4-chloro-3-(2,6-dichloro-4-trifluoromethylphenyloxy)-5-methylpyrazole]
melting point: 156 to 158 °C

SMILES: Cc1cc(Oc2ccc([N+](=O)[O-])c(C)c2)n[nH]1 [Compound 1-4, 5-methyl-3-(4-nitro-3-methylphenyloxy)pyrazole]
melting point: 114 to 117 °C

SMILES: Cc1cc(Oc2ccc(F)cc2[N+](=O)[O-])n[nH]1 [Compound 1-29, 3-(4-fluoro-2-nitrophenyloxy)-5-methylpyrazole]
melting point: 81 to 84 °C

SMILES: CCNC(=O)n1nc(Oc2cc(OCC)ccc2[N+](=O)[O-])cc1C [Example 99, N-ethyl-3-(5-ethoxy-2-nitrophenyloxy)-5-methylpyrazole-1-carboxamide]
melting point: 73 to 75 °C

SMILES: Cc1cc(Oc2ccc([N+](=O)[O-])cc2)n[nH]1 [Compound 1-47, 5-methyl-3-(4-nitrophenyloxy)pyrazole]
melting point: 124 to 125 °C
